Where “and” joins values, the source holds several entries; their conditions need not be identical. Equal entries are not always repeated.
Assays:
[1] = cited from earlier work
[2] = test system: hippocampal functional connectivity; experiment: Phase II placebo-controlled crossover trial: hippocampal functional connectivity by resting-state fMRI in cognitively normal subjects; format: in vivo, human
Procedure: (§1) A phase II, randomized, double-blind, placebo-controlled crossover clinical trial of 26 CN subjects (ranging in age from 55 to 75 years) to assess the potential effect of levetiracetam on hippocampal functional connectivity (a risk marker for cognitive decline and cognitive impairment and progression to AD) was conducted. 35 patients were recruited and assessed for eligibility and the 26 eligible subjects were separated into Group A or Group B treatment groups. Group A subjects received an oral placebo tablet daily for two weeks followed by a four-week washout period; then, the subjects received an oral levetiracetam tablet daily for two weeks (i.e., two-week placebo treatment, four-week washout period, and two-week levetiracetam treatment). Group B subjects received treatment using the reverse sequence (i.e., two-week levetiracetam treatment, four-week washout period, and two-week placebo treatment). The tablet was characterized by 220 mg levetiracetam in extended release form, i.e. Tablet D (Table 2) above.
For each scanning session, imaging was carried out on a 3T GE MR750 whole-body scanner (GE Healthcare, Waukesha WI) with a body transmit and a 32-channel head receive coil (Nova Medical, Wilmington MA). Imaging acquisition included T1- and T2-weighted high resolution, anatomical images (TR=2521.27 ms, TE=3.596 ms, Voxel resolution: 0.5×0.5×0.8 mm3, FOV: 25.6 cm, Flip angle: 8°). […]
Total Functional connectivity indices (TFCI) were obtained based on the traditional region of interest (ROI)-based method (Chen et al, 2011) in which individual cerebrums were automatically parcellated into 90 regions, per the Automated Anatomical Labeling (AAL) toolbox (3), and the FCI was calculated as the summation of Pearson cross-correlation coefficients between the seed region and all other regions in the cerebrum. […] Second, functional connectivity between each ROI and the other brain regions was calculated using the Pearson cross-correlation analysis. […]

[3] = Levetiracetam level in blood after treatment in the LEV-HFC trial; format: in vivo, human; conditions: after two-week treatment with levetiracetam 220 mg extended release daily
Procedure: as §1
A total of 25 participants (15 women with a mean [SD] age of 65.9 [3.8] years and 10 men with a mean [SD] age of 66.7 [5.5] years) were enrolled, randomized (12 participants to group A and 13 participants to group B), and completed the study. […]

LEV [μg] in blood, AVG ([3]; average of 25 subjects): 4.3 µg
Compound: CC[C@@H](C(N)=O)N1CCCC1=O [Levetiracetam, (2S)-2-(2-oxopyrrolidin-1-yl) butanamide]
Plasma half-life in elderly ([1]; expected in elderly due to decreased renal function): 9 to 10 h
Time of peak plasma concentrations ([1]; following oral administration): about 1 hour
Plasma half-life ([1]; in vivo): approximately 7±1 hour
Time to steady state ([1]; multiple twice-daily dosing): 2 days
Absorption after oral administration ([1]; oral): rapidly and almost completely absorbed
Effect of food on bioavailability ([1]; oral): not affected by food
Functional connectivity of the hippocampus network, levetiracetam compared with placebo ([2]; 220 mg extended release tablet (Tablet D) daily for two weeks, 25 CN subjects, paired t-test, t=−2.8044, p<0.0098, FIG. 6): significantly decreased
Period I FC (hippocampal functional connectivity) ([2]; individual subjects, first two-week period, levetiracetam 220 mg extended release daily (numbers without *)): 0.209 and 0.602 and 0.148 (2×) and 0.241 and 0.138 and 0.099 and 0.136 and 0.504 and 0.253 and 0.367 and 0.173 and 0.303
Period II FC (hippocampal functional connectivity) ([2]; individual subjects, second two-week period after four-week washout, levetiracetam 220 mg extended release daily (numbers without *)): 0.264 and 0.238 and 0.366 and 0.013 and 0.352 and 0.31 and 0.048 and 0.177 (2×) and 0.17 and 0.106 and 0.28
LEV [μg] in blood ([3]; individual subjects, listed as LEV): 3 μg and 4.5 μg and 4.8 μg and 6.1 μg and 2.9 μg and 4.1 μg (2×) and 5.1 μg and 4.4 μg (2×) and 6.3 μg and 4.9 μg and 4.2 μg and 3.1 μg and 2.8 μg and 3.8 μg (2×) and 5.8 μg and 5 μg and 3.2 μg and 3.4 μg and 4 μg and 4.7 μg and 2 μg and 8.2 μg

— US20250228820A1, “METHODS FOR PREVENTING OR SLOWING THE PROGRESSION OF COGNITIVE DECLINE OR IMPAIRMENT IN SUBJECTS DISPLAYING NORMAL COGNITIVE PERFORMANCE” (AGENEBIO, INC., priority 2022, published 2025)
